# Assay results taken from ChEMBL document CHEMBL3745637, “New hybrid molecules with anticonvulsant and antinociceptive activity derived from 3-methyl- or 3,3-dimethyl-1-[1-oxo-1-(4-phenylpiperazin-1-yl)propan-2-yl]pyrrolidine-2,5-diones” (Bioorg Med Chem, 2016).
# Calls of active or inactive are those of the source. The rule behind the calls is not given here.
# Tests used:
# Mus musculus [1] = assay: Anticonvulsant activity in Swiss mouse assessed as reduction in clonic seizures at 100 mg/kg, ip pretreated for 0.5 hrs measured after 30 mins by subcutaneous pentylenetetrazole seizure test; assay type: functional, organism-based
# Mus musculus [2] = assay: Antinociceptive activity in ip dosed Swiss mouse assessed as reduction of formalin-induced licking at MES ED50 pretreated for 0.25 hrs measured during 1 to 5 mins; assay type: functional
# [3] = Neurotoxicity in ip dosed Swiss mouse seizure model assessed as motor impairment pretreated for 0.5 hrs measured within 60 s by chimney test; assay type: toxicity, organism-based; details: in vivo
# Mus musculus [4] = assay: Antinociceptive activity in ip dosed Swiss mouse assessed as reduction of formalin-induced licking at MES ED50 pretreated for 0.25 hrs measured during 15 to 20 mins; assay type: functional; design: scale not given: the % may be the effect or the level left
# [5] = Protective index, ratio of TD50 for neurotoxicity in ip dosed Swiss mouse to ED50 for anticonvulsant activity in ip dosed Swiss mouse 6 Hz psychomotor seizure model at 0.25 hrs; assay type: toxicity, organism-based; details: in vivo, read-out: Ratio TD50/ED50
# Mus musculus [6] = assay: Anticonvulsant activity against Swiss mouse seizure model assessed as protection at 100 mg/kg, ip pretreated for 0.25 hrs by 6 Hz psychomotor seizure test; assay type: functional, organism-based
# Mus musculus [7] = assay: Anticonvulsant activity in ip dosed Swiss mouse assessed as protection against maximal electroshock-induced seizures at 0.25 hrs; assay type: functional
# Mus musculus [8] = assay: Anticonvulsant activity against ip dosed Swiss mouse seizure model assessed as protection at 0.25 hrs by 6 Hz psychomotor seizure test; assay type: functional
# [9] = Protective index, ratio of TD50 for neurotoxicity in ip dosed Swiss mouse to ED50 for anticonvulsant activity in ip dosed Swiss mouse 6 Hz psychomotor seizure model at 0.5 hrs; assay type: toxicity, organism-based; details: in vivo, read-out: Ratio TD50/ED50
# [10] = Protective index, ratio of TD50 for neurotoxicity in ip dosed Swiss mouse to ED50 for anticonvulsant activity in ip dosed MES Swiss mouse model at 0.5 hrs; assay type: toxicity, organism-based; details: in vivo, read-out: Ratio TD50/ED50
# [11] = Protective index, ratio of TD50 for neurotoxicity in ip dosed Swiss mouse to ED50 for anticonvulsant activity in ip dosed MES Swiss mouse model at 0.25 hrs; assay type: toxicity, organism-based; details: in vivo, read-out: Ratio TD50/ED50
# Mus musculus [12] = assay: Anticonvulsant activity in ip dosed Swiss mouse assessed as reduction in clonic seizures at 0.5 hrs by subcutaneous pentylenetetrazole seizure test; assay type: functional
# Mus musculus [13] = assay: Anticonvulsant activity in ip dosed Swiss mouse assessed as protection against maximal electroshock-induced seizures at 0.5 hrs; assay type: functional
# Mus musculus [14] = assay: Anticonvulsant activity in ip dosed Swiss mouse assessed as reduction in clonic seizures at 0.25 hrs by subcutaneous pentylenetetrazole seizure test; assay type: functional
# Mus musculus [15] = assay: Anticonvulsant activity in Swiss mouse assessed as reduction in clonic seizures at 100 mg/kg, ip pretreated for 1 hr measured after 30 mins by subcutaneous pentylenetetrazole seizure test; assay type: functional, organism-based
# Mus musculus [16] = assay: Anticonvulsant activity in ip dosed Swiss mouse assessed as prolong latency to first seizure episode pretreated for 0.25 hrs measured after 30 mins by subcutaneous pentylenetetrazole seizure test; assay type: functional, organism-based
# [17] = Protective index, ratio of TD50 for neurotoxicity in ip dosed Swiss mouse to ED50 for anticonvulsant activity in ip dosed scPTZ Swiss mouse model at 0.25 hrs; assay type: toxicity, organism-based; details: in vivo, read-out: Ratio TD50/ED50
# Mus musculus [18] = assay: Antinociceptive activity in ip dosed Swiss mouse assessed as reduction of formalin-induced licking at MES ED50 pretreated for 0.25 hrs measured during 20 to 25 mins; assay type: functional; design: scale not given: the % may be the effect or the level left
# Mus musculus [19] = assay: Anticonvulsant activity against ip dosed Swiss mouse seizure model assessed as protection at 0.5 hrs by 6 Hz psychomotor seizure test; assay type: functional
# Mus musculus [20] = assay: Anticonvulsant activity in Swiss mouse assessed as reduction in clonic seizures at 100 mg/kg, ip pretreated for 2 hrs measured after 30 mins by subcutaneous pentylenetetrazole seizure test; assay type: functional, organism-based
# [21] = Neurotoxicity in ip dosed Swiss mouse seizure model assessed as motor impairment pretreated for 0.25 hrs measured within 60 s by chimney test; assay type: toxicity, organism-based; details: in vivo
# Mus musculus [22] = assay: Anticonvulsant activity in Swiss mouse assessed as protection against maximal electroshock-induced seizures at 300 mg/kg, ip pretreated for 0.25 hrs; assay type: functional, organism-based
# Mus musculus [23] = assay: Anticonvulsant activity against Swiss mouse seizure model assessed as protection at 100 mg/kg, ip pretreated for 0.5 hrs by 6 Hz psychomotor seizure test; assay type: functional, organism-based
# Mus musculus [24] = assay: Anticonvulsant activity in Swiss mouse assessed as prolong latency to first seizure episode at 250 mg/kg pretreated for 0.5 hrs measured after 30 mins by subcutaneous pentylenetetrazole seizure test; assay type: functional, organism-based
# Mus musculus [25] = assay: Anticonvulsant activity in Swiss mouse assessed as protection against maximal electroshock-induced seizures at 100 mg/kg, ip pretreated for 0.25 hrs; assay type: functional, organism-based
# Mus musculus [26] = assay: Anticonvulsant activity in Swiss mouse assessed as protection against maximal electroshock-induced seizures at 300 mg/kg, ip pretreated for 0.5 hrs; assay type: functional, organism-based
# Mus musculus [27] = assay: Anticonvulsant activity in Swiss mouse assessed as protection against maximal electroshock-induced seizures at 100 mg/kg, ip pretreated for 2 hrs; assay type: functional, organism-based
# Mus musculus [28] = assay: Antinociceptive activity in ip dosed Swiss mouse assessed as reduction of formalin-induced licking at MES ED50 pretreated for 0.25 hrs measured during 15 to 30 mins; assay type: functional, organism-based
# Mus musculus [29] = assay: Anticonvulsant activity in Swiss mouse assessed as protection against maximal electroshock-induced seizures at 300 mg/kg, ip pretreated for 1 hr; assay type: functional, organism-based
# Mus musculus [30] = assay: Anticonvulsant activity in Swiss mouse assessed as protection against maximal electroshock-induced seizures at 300 mg/kg, ip pretreated for 2 hrs; assay type: functional, organism-based
# Mus musculus [31] = assay: Anticonvulsant activity in Swiss mouse assessed as reduction in clonic seizures at 100 mg/kg, ip pretreated for 0.25 hrs measured after 30 mins by subcutaneous pentylenetetrazole seizure test; assay type: functional, organism-based
# Mus musculus [32] = assay: Antinociceptive activity in ip dosed Swiss mouse assessed as reduction of formalin-induced licking at MES ED50 pretreated for 0.25 hrs measured during 25 to 30 mins; assay type: functional; design: scale not given: the % may be the effect or the level left
# Mus musculus [33] = assay: Anticonvulsant activity in Swiss mouse assessed as prolong latency to first seizure episode at 120 mg/kg pretreated for 0.25 hrs measured after 30 mins by subcutaneous pentylenetetrazole seizure test; assay type: functional, organism-based
# Rattus norvegicus = species on record: Rattus norvegicus; assay: Displacement of [3H]nitrendipine from calcium channel L-Type dihydropyridine site in rat cerebral cortex at 100 uM after 120 mins by scintillation counting method; assay type: tissue-based
# Mus musculus [34] = assay: Toxicity in Swiss mouse assessed as death at 300 mg/kg, ip measured after 0.25 hrs; assay type: organism-based; details: in vivo
# [35] = Protective index, ratio of TD50 for neurotoxicity in ip dosed Swiss mouse to ED50 for anticonvulsant activity in ip dosed scPTZ Swiss mouse model at 0.5 hrs; assay type: toxicity, organism-based; details: in vivo, read-out: Ratio TD50/ED50
# [36] = Protective index, ratio of TD50 for neurotoxicity in ip dosed Swiss mouse to ED50 for anticonvulsant activity in ip dosed Swiss mouse 6 Hz psychomotor seizure model at 1 hr; assay type: toxicity, organism-based; details: in vivo, read-out: Ratio TD50/ED50
# [37] = Neurotoxicity in ip dosed Swiss mouse seizure model assessed as motor impairment pretreated for 1 hr measured within 60 s by chimney test; assay type: toxicity, organism-based; details: in vivo
# Mus musculus [38] = assay: Anticonvulsant activity in ip dosed Swiss mouse assessed as protection against maximal electroshock-induced seizures at 1 hr; assay type: functional
# Mus musculus [39] = assay: Anticonvulsant activity in ip dosed Swiss mouse assessed as reduction in clonic seizures at 1 hr by subcutaneous pentylenetetrazole seizure test; assay type: functional
smiles,measurement,setting,value
CCC(C(=O)N1CCN(c2cccc(C(F)(F)F)c2)CC1)N1C(=O)CC(C)C1=O (stereo unspecified),Activity,Mus musculus [1],inactive
same,Activity,Mus musculus [2],inactive
same,TD50 at 0.5 h,[3],170 mg/kg
same,Activity,Mus musculus [4],94%
same,selectivity ratio at 0.25 h,[5],5.42
same,Activity,Mus musculus [6],Active
same,ED50,Mus musculus [7],75.1 mg/kg
same,ED50,Mus musculus [8],30.3 mg/kg
same,selectivity ratio at 0.5 h,[9],4.12
same,selectivity ratio at 0.5 h,[10],2.24
same,selectivity ratio at 0.25 h,[11],2.19
same,ED50,Mus musculus [12],> 130 mg/kg
same,ED50,Mus musculus [13],75.7 mg/kg
same,ED50,Mus musculus [14],108 mg/kg
same,Activity,Mus musculus [15],inactive
same,Activity,Mus musculus [16],Dose-dependent effect
same,selectivity ratio at 0.25 h,[17],1.51
same,Activity,Mus musculus [18],57%
same,ED50,Mus musculus [19],41.2 mg/kg
same,Activity,Mus musculus [20],inactive
same,TD50 at 0.25 h,[21],164 mg/kg
same,Activity,Mus musculus [22],Active
same,Activity,Mus musculus [23],Active
CCCC(CCC)C(=O)O,Activity,Mus musculus [24],Active
CC(C(=O)N1CCN(c2cccc(C(F)(F)F)c2)CC1)N1C(=O)CC(C)(C)C1=O (stereo unspecified),Activity,Mus musculus [2],56%
same,Activity,Mus musculus [25],Active
same,Activity,Mus musculus [26],Active
same,Activity,Mus musculus [4],96%
same,selectivity ratio at 0.25 h,[5],14.7
same,Activity,Mus musculus [27],inactive
same,Activity,Mus musculus [28],Active
same,ED50,Mus musculus [7],114 mg/kg
same,Activity,Mus musculus [29],Active
same,Activity,Mus musculus [30],Active
same,ED50,Mus musculus [8],29 mg/kg
same,Activity,Mus musculus [31],inactive
same,selectivity ratio at 0.25 h,[11],3.73
same,Activity,Mus musculus [32],98%
same,Activity,Mus musculus [18],93%
same,Activity,Mus musculus [20],inactive
same,TD50 at 0.25 h,[21],425 mg/kg
same,Activity,Mus musculus [22],Active
CCC1(C)CC(=O)NC1=O (stereo unspecified) [ETHOSUXIMIDE],Activity,Mus musculus [33],Active
same,ED50,Mus musculus [7],> 500 mg/kg
same,ED50,Mus musculus [8],> 200 mg/kg
same,selectivity ratio at 0.25 h,[17],4.89
CC1(C)O[C@@H]2[C@@H](CO[C@@]3(COS(N)(=O)=O)OC(C)(C)O[C@@H]23)O1,inhibition,Rattus norvegicus,7.9%
CC(C(=O)N1CCN(c2ccc(C(F)(F)F)cc2)CC1)N1C(=O)CC(C)(C)C1=O (stereo unspecified),Activity,Mus musculus [34],Toxic
same,Activity,Mus musculus [22],inactive
CC1CC(=O)N(C(C)C(=O)N2CCN(c3cccc(Cl)c3)CC2)C1=O (stereo unspecified),Activity,Mus musculus [2],45%
same,Activity,Mus musculus [25],Active
same,selectivity ratio at 0.5 h,[35],2.23
same,TD50 at 0.5 h,[3],270 mg/kg
same,Activity,Mus musculus [26],Active
same,Activity,Mus musculus [4],74%
same,selectivity ratio at 0.25 h,[5],19.2
same,Activity,Mus musculus [27],inactive
same,Activity,Mus musculus [6],Active
same,ED50,Mus musculus [7],89.7 mg/kg
same,ED50,Mus musculus [8],13.6 mg/kg
same,selectivity ratio at 0.5 h,[9],11.1
same,selectivity ratio at 0.5 h,[10],2.74
same,selectivity ratio at 0.25 h,[11],2.91
same,ED50,Mus musculus [12],121 mg/kg
same,ED50,Mus musculus [13],98.5 mg/kg
same,ED50,Mus musculus [14],114 mg/kg
same,Activity,Mus musculus [15],inactive
same,Activity,Mus musculus [16],Dose-dependent effect
same,selectivity ratio at 0.25 h,[17],2.3
same,Activity,Mus musculus [18],88%
same,ED50,Mus musculus [19],24.4 mg/kg
same,Activity,Mus musculus [20],inactive
same,TD50 at 0.25 h,[21],261 mg/kg
same,Activity,Mus musculus [22],Active
same,Activity,Mus musculus [23],Active
CC[C@@H](C(N)=O)N1CCCC1=O [LEVETIRACETAM],selectivity ratio at 1 h,[36],> 33.8
same,TD50 at 1 h,[37],> 500 mg/kg
same,ED50,Mus musculus [38],> 500 mg/kg
same,ED50,Mus musculus [39],> 500 mg/kg
CC1CC(=O)N(C(C)C(=O)N2CCN(c3ccc(C(F)(F)F)cc3)CC2)C1=O (stereo unspecified),Activity,Mus musculus [34],Toxic
same,Activity,Mus musculus [22],inactive
